The results in this text go back to US20250144140A1, “METHODS FOR ALLOGENEIC HEMATOPOIETIC STEM CELL TRANSPLANTATION” (Orca Biosystems, Inc., priority 2022, published 2025).

Structures are written as SMILES.

In series [1] the test system is subjects with advanced hematologic malignancies undergoing myeloablative allogeneic hematopoietic cell transplantation. Nature of the series: GVHD and relapse-free survival (GRFS). Type of series: in vivo, human. As to conditions: Example 3, tacrolimus-only relative to sirolimus-only patients. The source says:
GVHD and relapse-free survival is a composite readout that can refer to survival without relapse or Grade ≥3 acute or extensive chronic GVHD. At the time of reporting, the percent of GVHD-free and relapse-free survival to one-year post-transplant was 74% for the study group, compared to 34% for the SOC cohort, as shown in FIG. 4F. The difference was statistically significant (p=0.0001 by log-rank test).

The test system is the same in series [2]. The experiment in a line: Disease relapse / relapse-free survival / disease status after therapy. Type of series: in vivo, human. As to conditions: Example 3, tacrolimus-only relative to sirolimus-only patients.
Series [3] has the same test system. Nature of the series: Overall survival. As to conditions: Example 3, tacrolimus-only relative to sirolimus-only patients. In kind it is in vivo, human. The text has this:
Overall survival: OS was defined as the time from the date of transplant to the date of death from any cause or, for surviving patients, to the date of last follow-up. […] The difference was statistically significant (p=0.0242 by log-rank test).

For series [4] the test system is unchanged. Nature of the series: Chronic GVHD, per NIH consensus criteria. In kind it is in vivo, human. To be noted: Example 3, serum tacrolimus trough level higher vs lower than 4 ng/ml. The protocol:
Chronic GVHD was diagnosed, staged, and graded per the International NIH Chronic GVHD Diagnosis and Staging Consensus Working Group criteria.
Chronic GVHD: As chronic GVHD (cGVHD) is associated with significant morbidity and with decreased survival, reducing the severity or incidence of cGVHD has the potential to greatly benefit graft recipients. Chronic GVHD was diagnosed per 2014 International NIH Chronic GVHD Diagnosis and Staging Consensus Working Group criteria.
Analysis was conducted using a cutoff of 365 days (i.e., cGVHD events that occur after Day ^+365 were not included). […] Additionally, several subjects in the study group have undergone greater than 2.5 years of follow-up with no cGVHD symptoms reported.

Series [5] shares this test system. To be noted: in vivo.
Text: Acute GVHD was staged and graded per MAGIC Standardization criteria.
Acute GVHD was staged and graded per Mount Sinai Acute GvHD International Consortium (MAGIC) Standardization criteria.
The test system of series [6] is Patients with hematologic malignancies. The experiment in a line: Relapse, non-relapse mortality, relapse-free survival, GRFS and overall survival after transplant. In kind it is in vivo, human. As to conditions: with Orca-T; relapse-free survival through 1 year; FIG. 14. The text has this:
FIGS. 1A-B illustrate the schematics of the transplant according to the methods described herein (identified as High-Precision Orca-T or Orca-T) and the differences compared to a standard of care (SOC) cohort (identified as Conventional Transplant or SOC).

In the case of `C=CC[C@@H]1/C=C(\C)C[C@H](C)C[C@H](OC)[C@H]2O[C@@](O)(C(=O)C(=O)N3CCCC[C@H]3C(=O)O[C@H](/C(C)=C/[C@@H]3CC[C@@H](O)[C@H](OC)C3)[C@H](C)[C@@H](O)CC1=O)[C@H](C)C[C@@H]2OC` [tacrolimus], the GRFS rates result in series [1] was “improved”. The relapse rates result in series [2] was “improved”. Besides, in series [3], the overall survival rates result is “improved” and the “survival (FIG. 7E)” value is listed as “improved”. In addition, the “chronic GVHD rates” value in series [4] was “improvements”. Further, the GVHD rates result in series [5] is recorded as “higher”.

Turning to `S=P(N1CC1)(N1CC1)N1CC1` [thiotepa], in series [6], the “effect of addition of thiotepa to busulfan-based conditioning regimens on relapse and non-relapse mortality” value is listed as “decreases relapse without increasing non-relapse mortality”.
